Laboratory results reported in patent US20130011480A1, “CYTOTOXIC THERAPY BY PROTON FLUX MODULATION” (priority 2011, published 2013).
Counter-ions that a name gives are not always drawn. Like-named read-outs stand apart in the source and are kept apart here.

Tests used:
[1] = test system: normal human hepatic cells; details: treated versus untreated cells; cited from earlier work
[2] = test system: hepatoblastoma cells; details: morphological observations and flow cytometry; cited from earlier work
[3] = test system: Na+-independent Cl−/HCO3− exchange; details: cited from earlier work
[4] = raises metabolic rate and promotes weight loss; cited from earlier work
[5] = target: NHE1 (Homo sapiens, UniProt P19634); details: NHE1 inhibition; cited from earlier work
Sequence of NHE1 (P19634 whole entry, species assumed): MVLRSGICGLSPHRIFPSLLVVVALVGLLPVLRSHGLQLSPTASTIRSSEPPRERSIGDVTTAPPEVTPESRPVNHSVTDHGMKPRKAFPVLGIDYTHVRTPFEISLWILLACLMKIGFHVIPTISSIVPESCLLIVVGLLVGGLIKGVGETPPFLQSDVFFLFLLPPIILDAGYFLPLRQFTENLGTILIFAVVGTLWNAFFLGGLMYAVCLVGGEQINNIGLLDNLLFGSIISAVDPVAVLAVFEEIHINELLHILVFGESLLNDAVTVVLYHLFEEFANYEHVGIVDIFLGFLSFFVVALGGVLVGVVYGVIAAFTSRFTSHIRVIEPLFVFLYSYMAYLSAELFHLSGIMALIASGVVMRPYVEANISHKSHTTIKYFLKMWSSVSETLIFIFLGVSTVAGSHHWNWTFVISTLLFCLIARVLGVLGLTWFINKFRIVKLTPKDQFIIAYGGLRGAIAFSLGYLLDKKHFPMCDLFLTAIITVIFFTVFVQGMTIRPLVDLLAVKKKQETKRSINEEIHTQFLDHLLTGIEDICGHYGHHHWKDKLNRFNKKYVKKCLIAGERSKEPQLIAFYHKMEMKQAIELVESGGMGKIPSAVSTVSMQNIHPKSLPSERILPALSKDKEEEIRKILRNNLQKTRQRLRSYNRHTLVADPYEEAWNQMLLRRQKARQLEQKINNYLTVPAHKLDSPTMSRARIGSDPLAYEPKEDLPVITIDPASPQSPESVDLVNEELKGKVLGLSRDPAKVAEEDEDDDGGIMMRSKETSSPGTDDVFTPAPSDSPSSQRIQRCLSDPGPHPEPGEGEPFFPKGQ

[6] = test system: CA3 neurons; details: cited from earlier work
[7] = test system: K+ channels; details: 100-500 μM; cited from earlier work
[8] = target: T1, N-type Ca2+ channel (Homo sapiens, UniProt Q00975); details: calculated for 50 μM; cited from earlier work
T1 construct: N-type Ca2+ channels of hippocampal CA1 neurons; host or cells: hippocampal CA1 neurons
T1 sequence (Q00975 whole entry): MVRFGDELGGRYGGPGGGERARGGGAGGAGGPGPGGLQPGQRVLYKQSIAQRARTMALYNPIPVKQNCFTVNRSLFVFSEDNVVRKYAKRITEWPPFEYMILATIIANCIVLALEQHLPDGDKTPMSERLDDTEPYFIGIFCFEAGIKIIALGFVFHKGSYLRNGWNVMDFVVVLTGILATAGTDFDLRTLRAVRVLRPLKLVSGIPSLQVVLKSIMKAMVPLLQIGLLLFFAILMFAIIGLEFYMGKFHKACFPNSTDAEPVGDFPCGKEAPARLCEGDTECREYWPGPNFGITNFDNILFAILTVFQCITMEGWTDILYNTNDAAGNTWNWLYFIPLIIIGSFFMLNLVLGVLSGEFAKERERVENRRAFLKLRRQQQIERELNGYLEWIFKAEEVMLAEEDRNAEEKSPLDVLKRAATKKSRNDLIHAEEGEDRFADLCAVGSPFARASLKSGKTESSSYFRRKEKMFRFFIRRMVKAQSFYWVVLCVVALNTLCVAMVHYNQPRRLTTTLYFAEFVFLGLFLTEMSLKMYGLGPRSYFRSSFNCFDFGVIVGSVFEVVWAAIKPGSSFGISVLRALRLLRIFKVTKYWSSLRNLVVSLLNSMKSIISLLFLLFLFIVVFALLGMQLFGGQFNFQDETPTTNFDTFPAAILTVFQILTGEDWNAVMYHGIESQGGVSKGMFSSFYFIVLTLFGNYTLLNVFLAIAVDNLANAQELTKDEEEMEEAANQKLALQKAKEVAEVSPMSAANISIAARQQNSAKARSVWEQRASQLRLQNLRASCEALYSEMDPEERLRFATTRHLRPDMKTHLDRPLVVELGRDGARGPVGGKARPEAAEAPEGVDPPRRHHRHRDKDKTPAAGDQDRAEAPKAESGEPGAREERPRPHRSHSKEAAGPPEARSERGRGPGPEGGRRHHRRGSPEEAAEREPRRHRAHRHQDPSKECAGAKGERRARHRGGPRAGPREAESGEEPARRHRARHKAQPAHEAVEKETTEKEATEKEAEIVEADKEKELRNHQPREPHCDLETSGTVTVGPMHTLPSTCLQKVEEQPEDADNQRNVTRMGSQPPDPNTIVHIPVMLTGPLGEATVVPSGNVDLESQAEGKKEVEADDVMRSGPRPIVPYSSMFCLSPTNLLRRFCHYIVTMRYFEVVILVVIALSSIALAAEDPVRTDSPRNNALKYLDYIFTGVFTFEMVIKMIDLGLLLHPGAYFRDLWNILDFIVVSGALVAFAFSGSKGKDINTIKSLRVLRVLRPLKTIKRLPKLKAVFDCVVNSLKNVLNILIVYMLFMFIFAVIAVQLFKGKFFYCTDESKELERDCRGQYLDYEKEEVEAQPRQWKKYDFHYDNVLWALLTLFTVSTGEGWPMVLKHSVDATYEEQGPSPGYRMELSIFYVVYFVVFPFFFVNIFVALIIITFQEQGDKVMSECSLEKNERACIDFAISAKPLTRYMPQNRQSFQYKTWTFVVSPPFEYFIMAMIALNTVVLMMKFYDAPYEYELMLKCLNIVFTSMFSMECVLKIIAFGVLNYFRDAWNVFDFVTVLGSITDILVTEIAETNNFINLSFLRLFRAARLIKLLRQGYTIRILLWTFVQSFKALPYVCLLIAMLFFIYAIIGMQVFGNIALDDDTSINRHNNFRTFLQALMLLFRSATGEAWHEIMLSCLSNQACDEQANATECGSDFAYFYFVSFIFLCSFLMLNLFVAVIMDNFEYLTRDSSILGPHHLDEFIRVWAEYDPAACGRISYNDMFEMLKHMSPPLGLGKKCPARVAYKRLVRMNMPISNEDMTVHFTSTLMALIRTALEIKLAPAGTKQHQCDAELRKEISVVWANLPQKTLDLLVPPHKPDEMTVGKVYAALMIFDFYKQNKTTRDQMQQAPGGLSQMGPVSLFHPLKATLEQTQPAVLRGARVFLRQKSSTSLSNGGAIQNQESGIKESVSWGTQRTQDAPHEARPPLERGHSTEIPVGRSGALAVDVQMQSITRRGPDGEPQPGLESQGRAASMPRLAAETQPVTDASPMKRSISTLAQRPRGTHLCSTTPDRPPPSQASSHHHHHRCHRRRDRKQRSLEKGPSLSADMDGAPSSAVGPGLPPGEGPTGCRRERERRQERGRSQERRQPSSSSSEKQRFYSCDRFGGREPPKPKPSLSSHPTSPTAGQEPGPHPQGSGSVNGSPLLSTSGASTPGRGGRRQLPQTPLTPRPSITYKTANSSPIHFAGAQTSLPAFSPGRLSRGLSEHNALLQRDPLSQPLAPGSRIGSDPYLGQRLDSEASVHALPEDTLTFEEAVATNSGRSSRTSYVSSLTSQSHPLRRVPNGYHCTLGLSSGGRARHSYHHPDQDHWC

[9] = test system: CA3 neurons; details: 50 μM; CO2/HCO3−-buffered; cited from earlier work
[10] = test system: high-voltage-activated Ca2+ channels; details: hippocampal CA1 neurons; cited from earlier work
[11] = Cancer patients treated orally with acid-efflux inhibitor combinations: side effects; format: in vivo, human
Procedure: Patients have been treated orally with a combination of drugs that inhibit the efflux of acid (H+, CO2, and/or lactic acid). Although these drugs tend to alkalinize the extracellular milieu of cancer cells, they may be administered in combinations that achieve a metabolic acidosis.
Esomeprazole (vacuolar H+ ATPase pump inhibitor) was used either daily or every other day, with a dose ranging from 240 mg per day up to 320 mg per day, or more.
Methazolamide (a carbonic anhydrase inhibitor) was used every other day with a dose ranging from 50 mg per day up to a maximum of 400 mg per day. […] Side effects were especially noticeable in a patient with elevated liver function tests due to metastatic disease to the liver.
Amiloride (Na−H+ exchanger inhibitor and an inhibitor of urokinase plasminogen activator) was used daily at a dose of 20 mg per day, or more. Because amiloride is a potassium-sparing diuretic, with a propensity to cause hyperkalemia, HCTZ, at 25 mg 2 times per day was administered as well. In addition, the use of amiloride in combination with HCTZ has shown to inhibit metastases more effectively than when amiloride is used alone.
NaHCO3 (Arm & Hammer Baking Soda) was used daily, in some cases, at a dose ranging from 5 grams to 30 grams per day, or more.
Intravenous lactate and/or glucose (with or without insulin) are useful for potentiating this therapy. […]

[12] = target: proton pump (Homo sapiens, UniProt P20648); details: compared with classical PPIs; cited from earlier work
Sequence of proton pump (P20648 whole entry): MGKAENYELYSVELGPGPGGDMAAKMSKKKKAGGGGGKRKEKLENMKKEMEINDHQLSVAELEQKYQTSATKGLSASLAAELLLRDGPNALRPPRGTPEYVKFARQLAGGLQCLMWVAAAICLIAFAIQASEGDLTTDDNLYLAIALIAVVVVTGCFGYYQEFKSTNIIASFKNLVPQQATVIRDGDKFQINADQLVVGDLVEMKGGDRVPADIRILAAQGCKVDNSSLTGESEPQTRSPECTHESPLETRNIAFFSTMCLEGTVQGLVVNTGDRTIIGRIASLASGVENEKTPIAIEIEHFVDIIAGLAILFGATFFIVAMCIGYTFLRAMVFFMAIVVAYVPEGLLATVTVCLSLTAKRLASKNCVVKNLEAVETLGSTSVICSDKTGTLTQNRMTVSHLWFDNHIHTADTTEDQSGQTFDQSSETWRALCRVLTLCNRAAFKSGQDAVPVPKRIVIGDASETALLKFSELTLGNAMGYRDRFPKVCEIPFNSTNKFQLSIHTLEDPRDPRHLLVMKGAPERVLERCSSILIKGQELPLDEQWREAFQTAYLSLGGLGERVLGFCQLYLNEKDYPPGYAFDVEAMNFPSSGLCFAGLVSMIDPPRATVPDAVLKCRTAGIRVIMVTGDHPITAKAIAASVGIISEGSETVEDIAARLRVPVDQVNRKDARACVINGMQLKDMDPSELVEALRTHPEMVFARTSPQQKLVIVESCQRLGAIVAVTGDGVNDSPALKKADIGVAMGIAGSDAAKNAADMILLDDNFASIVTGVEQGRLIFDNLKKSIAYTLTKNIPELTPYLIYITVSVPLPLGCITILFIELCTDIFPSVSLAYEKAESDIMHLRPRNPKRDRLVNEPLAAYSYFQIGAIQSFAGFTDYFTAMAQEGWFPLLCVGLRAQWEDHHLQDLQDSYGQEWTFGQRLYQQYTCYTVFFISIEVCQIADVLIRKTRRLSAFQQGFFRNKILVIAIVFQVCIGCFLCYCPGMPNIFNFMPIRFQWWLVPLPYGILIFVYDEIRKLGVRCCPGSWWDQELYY
Sequence of proton pump (P51164 whole entry partner): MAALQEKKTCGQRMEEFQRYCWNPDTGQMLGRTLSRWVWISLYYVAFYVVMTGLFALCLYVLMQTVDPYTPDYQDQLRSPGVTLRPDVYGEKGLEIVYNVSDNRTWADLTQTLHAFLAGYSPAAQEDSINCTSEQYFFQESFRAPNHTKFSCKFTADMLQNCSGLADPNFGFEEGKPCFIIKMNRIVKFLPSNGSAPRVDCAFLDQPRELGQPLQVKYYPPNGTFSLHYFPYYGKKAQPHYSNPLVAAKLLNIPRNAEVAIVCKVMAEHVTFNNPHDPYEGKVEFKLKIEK

[13] = as low as; dose dependent; cited from earlier work
[14] = test system: isolated normal rat hepatocyte; details: 72 hours' treatment; read-out: 50% inhibitory concentrations (IC(50)); cited from earlier work
[15] = test system: subcutaneous xenografted Huh-7 cells; details: 1 or 10 mg/kg/d subcutaneously, 2 weeks, cited from earlier work
[16] = test system: Huh-7 cells; details: cited from earlier work
[17] = test system: human melanoma; details: well-tolerated doses; cited from earlier work
[18] = test system: human melanoma; details: preadministration; cited from earlier work
[19] = test system: human breast cancer; details: chronic oral administration; cited from earlier work

CO/C1=C\C(C)=C\[C@@H](C)[C@@H](O)[C@@H](C)C/C(C)=C/C=C/[C@H](OC)[C@@H]([C@@H](C)[C@@H](O)[C@H](C)[C@@]2(O)C[C@@H](O)[C@H](C)[C@@H](C(C)C)O2)OC1=O [Baf-A1, Bafilomycin A1]
inhibition of cell growth [1]: negligible
cellular reproduction and apoptosis [2]: inhibits hepatoblastoma cellular reproduction by inducing apoptosis

O=S(=O)(O)c1cc(N=C=S)ccc1C=Cc1ccc(N=C=S)cc1S(=O)(=O)O [DIDS, 4,4′-diisothiocyanato-stilbene-2,2′-disulfonic acid]
alkalinization upon removal of extracellular Cl− ([3]; 500 μM, pretreatment 15 min, n=3): completely abolished

O=[N+]([O-])c1ccc(O)c([N+](=O)[O-])c1 [DNP, dinitrophenol]
reasonably well tolerated daily dose [4]: 3 to 5 mg/kg

CCN(c1nc(N)c(C(=O)N=C(N)N)nc1Cl)C(C)C [EIPA, 5-(N-ethyl-N-isopropyl)-amiloride]
potency relative to amiloride [5]: about 200 times

CC[C@@H](C(N)=O)N1CCCC1=O [LEV, levetiracetam]
effect on pHi ([6]; 1 μM (n=4)): without any effect
effect on steady-state pHi ([6]; 10 μM (n=3)): Small shifts
steady-state pHi ([6]; 50 μM, Na+-free CO2/HCO3−-buffered solution, n=5): not likely further influenced
mean acidification of steady-state pHi, nonresponding neurons excluded ([6]; 50 μM, neuronal somata, CO2/HCO3−-buffered solution, n=8): 0.19±0.07 pH units
mean acidification of steady-state pHi ([6]; 50 μM, neuronal somata, CO2/HCO3−-buffered solution, n=11): 0.14±0.09 pH units
decrease of pHi ([6]; 50 μM, nominal absence of extracellular CO2/HCO3−, HEPES pH 7.4, n=5): abolished
decrease of pHi of larger regions ([6]; 50 μM, stratum pyramidale, CO2/HCO3−-buffered solution, n=5): 0.11±0.04 pH units
effect on pHi ([6]; increase to 100 μM (n=4)): without additional effect
alkalinization upon removal of extracellular Cl− ([3]; 50, preincubation 15 min, n=5): no effect
inhibition of K+ channels [7]: less than 20%
reduction of N-type Ca2+ channel currents [8]: ca. 15%
steady-state pHi after preincubation [9]: 6.82
reduction of high-voltage-activated calcium currents [10]: about 20%

CC(=O)/N=c1/sc(S(N)(=O)=O)nn1C [Methazolamide]
side effects ([11]; every other day, 50 mg per day up to 400 mg per day): tingling in extremities, acidosis, fatigue, and nausea

COCCO[C@@H]1c2ccn3c(C)c(C)nc3c2N[C@H](c2ccccc2)[C@H]1O [Soraprazan]
time to block H+ secretion [12]: within a half-hour

N=C(N)NC(=O)c1nc(Cl)c(N)nc1N [amiloride]
doses found effective [13]: ≥ 0.3 mg/kg body weight per day

COC1=CC(c2ccc[nH]2)=N/C1=C\c1[nH]c(C)c2c1C(C)CCC2 (stereo not drawn) [cPrG-HCl, Cycloprodigiosin hydrochloride]
IC50 [14]: 8.4 µM
pathological changes in organs [15]: No pathological changes were observed in any organs
serum alanine transaminase levels [15]: remained within normal limits
tumor growth ([15]; compared with the control after 8 days): significantly inhibited tumor growth
pHi ([16]; lowered pHi): < 6.8
apoptosis ([16]; subG(1) population, DNA fragmentation, chromatin condensation): induced apoptosis

COc1ccc2nc([S@@+]([O-])Cc3ncc(C)c(OC)c3C)[nH]c2c1 [esomeprazole, Esomeprazole]
tumor growth and survival [17]: markedly impede tumor growth and prolong survival

COc1ccc2[nH]c([S+]([O-])Cc3ncc(C)c(OC)c3C)nc2c1 (stereo not drawn) [omeprazole]
growth-retardant impact of cisplatin [18]: potentiate the growth-retardant impact of cisplatin

Cc1nc(Nc2ccc(F)cc2)nc(N2CCc3ccccc3C2C)c1C (stereo not drawn) [revaprazan]
time to block H+ secretion [12]: within a half-hour

O=C([O-])O.[Na+] [sodium bicarbonate]
side effects ([11]; daily, 5 grams to 30 grams per day): bloating and abdominal discomfort
expansion of primary tumors [19]: not influencing the expansion of primary tumors
metastases in lung, visceral organs, and lymph nodes [19]: markedly reduces the number and size of metastases
